Values quoted from earlier work, collected in patent publication US20140187648A1, “Identifying Subjects in Need of Treatment” (HOWARD FOUNDATION HOLDINGS LTD., priority 2013, published 2014).

System: subjects who exhibit an abnormally low concentration of MP in the central portion of the retina

## CC1=C[C@H](O)CC(C)(C)[C@H]1/C=C/C(C)=C/C=C/C(C)=C/C=C/C=C(C)/C=C/C=C(C)/C=C/C1=C(C)C[C@@H](O)CC1(C)C [lutein, reference compound]
Subjects with abnormally low MP in the central portion of the retina
  effect on MP: little effect

## meso-zeaxanthin [MZ]
Subjects with abnormally low central MP
  MP levels outside the central portion of the retina: little effect
Subjects with abnormally low central MP, eccentricity 0.25° or less
  MP levels in the central portion of the retina: return MP levels in the central portion of the retina substantially to normal
